Test results taken from patent publication US20100098782A1, “USE OF SODIUM ACID SULFATE AS A DISINFECTANT” (JOHNSONDIVERSEY, INC., priority 2008, published 2010).
Values joined by “and” are separate entries in the source; they are usually repeats but may differ in a detail not shown here. Equal values may be shown once.

Columns and labels:
[1] = system: Escherichia coli, ATCC #11229; test: Modification of the Germicidal and Detergent Sanitizing Action of Disinfectants (A.O.A.C.); assay type: cell-based; conditions: 4000 ppm, 25° C.
Protocol: The germicidal effectiveness of 4000 ppm of sodium acid sulfate was tested at various levels of pH. The pH of the solutions was adjusted by addition of sodium hydroxide. The test method was A Modification of the Germicidal and Detergent Sanitizing Action of Disinfectants, A.O.A.C., 17th Edition 2000. The test organism was Escherichia coli, ATCC #11229 (560,000 org/ml), which was contacted with the sodium acid sulfate for 10 seconds and 30 seconds at 25° C. The recovery medium was Tryptone Glucose Extract Agar with Asolectin and Tween 80. Phosphate Buffer 0.2M was employed.

[2] = system: Salmonella enteriditis; test: Antimicrobial effectiveness, suspension contact test; assay type: cell-based
Protocol: In order to determine the antimicrobial effectiveness of the present invention, Salmonella enteriditis at 120,000,000 organisms per milliliter was contacted for 30 seconds, 1 minute, or 2 minutes, with 2,000 ppm SAS, or 4,000 ppm SAS at the indicated pH. The neutralizer was 0.2M Phosphate Buffer, pH 7.0, and the growth medium was 3M Aerobic Count Petrifilm using an incubation time of 4 days at 35° C.

[3] = system: organisms on freshly killed whole birds (3M Aerobic Count Petrifilm); test: Whole bird carcass dip test, aerobic count; conditions: for Organisms/Bird: individual birds
Protocol: In order to test the efficacy of the composition of the present invention for use in treating animal carcasses, freshly killed whole birds were dipped and completely immersed in 13 liters of treatment solution for 10 seconds. […] The growth medium was 3M Aerobic Count Petrifilm. The incubation was 2-3 days at 35° C. […] The same test was repeated using commercially available products, […]12, and Eden, comparing these with sodium acid sulfate and sodium acid sulfate in combination with citric acid.

[4] = 2000 ppm, pH 1.5, 30 seconds contact
[5] = 2000 ppm, pH 1.5, 2 minutes contact
[6] = 2000 ppm, pH 1.75, 30 seconds contact
[7] = 2000 ppm, pH 1.75, 1 minute contact
[8] = 2000 ppm, pH 2.0, 30 seconds contact
[9] = 2000 ppm, pH 2.0, 1 minute contact
[10] = 2000 ppm, pH 2.0, 2 minutes contact
[11] = 2000 ppm, pH 2.25, 30 seconds contact
[12] = 2000 ppm, pH 2.25, 1 minute contact
[13] = 2000 ppm, pH 2.25, 2 minutes contact
[14] = 2000 ppm, pH 2.5, 30 seconds contact
[15] = 2000 ppm, pH 2.5, 1 minute contact
[16] = 2000 ppm, pH 2.5, 2 minutes contact
[17] = 4000 ppm, pH 1.5, 30 seconds contact
[18] = 4000 ppm, pH 1.75, 30 seconds contact
[19] = 4000 ppm, pH 2.0, 30 seconds contact
[20] = 4000 ppm, pH 2.25, 30 seconds contact
[21] = 4000 ppm, pH 2.25, 1 minute contact
[22] = 4000 ppm, pH 2.25, 2 minutes contact
[23] = 4000 ppm, pH 2.5, 30 seconds contact
[24] = 4000 ppm, pH 2.5, 1 minute contact
[25] = 4000 ppm, pH 2.5, 2 minutes contact
[26] = 2000 ppm SAS, 10 seconds dip, pre 5 bird dip pH 1.60, post pH 1.78
[27] = 2000 ppm SAS, repeated test (Table 5)
[28] = 4000 ppm SAS, 10 seconds dip, pre 5 bird dip pH 1.56, post pH 1.75
[29] = 2400 ppm Lactic Acid, 10 seconds dip, pre 5 bird dip pH 1.80, post pH 1.96
[30] = 4800 ppm Lactic Acid, 10 seconds dip, pre 5 bird dip pH 1.80, post pH 1.96

O=S(=O)([O-])O.[Na+] [SAS, sodium acid sulfate]
% Reduction ([1]; pH 1.49, 10 seconds contact): 92.321%
Survivors ([1]; pH 1.49, 10 seconds contact): 43,000,000 org/ml
% Reduction ([1]; pH 1.49, 30 seconds contact): 92.804%
Survivors ([1]; pH 1.49, 30 seconds contact): 40,300,000 org/ml
% Reduction ([1]; pH 1.59, 10 seconds contact): 88.696%
Survivors ([1]; pH 1.59, 10 seconds contact): 63,300,000 org/ml
% Reduction ([1]; pH 1.59, 30 seconds contact): 89.732%
Survivors ([1]; pH 1.59, 30 seconds contact): 57,500,000 org/ml
% Reduction ([1]; pH 1.70, 10 seconds contact): 90.750%
Survivors ([1]; pH 1.70, 10 seconds contact): 51,800,000 org/ml
% Reduction ([1]; pH 1.70, 30 seconds contact): 91.785%
Survivors ([1]; pH 1.70, 30 seconds contact): 46,000,000 org/ml
% Reduction ([1]; pH 1.79, 10 seconds contact): 92.321%
Survivors ([1]; pH 1.79, 10 seconds contact): 43,000,000 org/ml
% Reduction ([1]; pH 1.79, 30 seconds contact): 93.839%
Survivors ([1]; pH 1.79, 30 seconds contact): 34,500,000 org/ml
% Reduction ([1]; pH 1.89, 10 seconds contact): 92.804%
Survivors ([1]; pH 1.89, 10 seconds contact): 40,300,000 org/ml
% Reduction ([1]; pH 1.89, 30 seconds contact): 94.375%
Survivors ([1]; pH 1.89, 30 seconds contact): 31,500,000 org/ml
% Reduction ([1]; pH 1.99, 10 seconds contact): 68.750%
Survivors ([1]; pH 1.99, 10 seconds contact): 175,000,000 org/ml
% Reduction ([1]; pH 1.99, 30 seconds contact): 81.785%
Survivors ([1]; pH 1.99, 30 seconds contact): 102,000,000 org/ml
% Reduction ([1]; pH 2.11, 10 seconds contact): 81.607%
Survivors ([1]; pH 2.11, 10 seconds contact): 103,000,000 org/ml
% Reduction ([1]; pH 2.11, 30 seconds contact): 82.857%
Survivors ([1]; pH 2.11, 30 seconds contact): 96,000,000 org/ml
% Reduction ([1]; pH 2.18, 10 seconds contact): 79.464%
Survivors ([1]; pH 2.18, 10 seconds contact): 115,000,000 org/ml
% Reduction ([1]; pH 2.18, 30 seconds contact): 98.089%
Survivors ([1]; pH 2.18, 30 seconds contact): 107,000,000 org/ml
% Reduction ([1]; pH 2.29, 10 seconds contact): 81.250%
Survivors ([1]; pH 2.29, 10 seconds contact): 105,000,000 org/ml
% Reduction ([1]; pH 2.29, 30 seconds contact): 86.250%
Survivors ([1]; pH 2.29, 30 seconds contact): 77,000,000 org/ml
% Reduction ([1]; pH 2.39, 10 seconds contact): 76.250%
Survivors ([1]; pH 2.39, 10 seconds contact): 133,000,000 org/ml
% Reduction ([1]; pH 2.39, 30 seconds contact): 77.142%
Survivors ([1]; pH 2.39, 30 seconds contact): 128,000,000 org/ml
% Reduction ([1]; pH 2.49, 10 seconds contact): 71.607%
Survivors ([1]; pH 2.49, 10 seconds contact): 159,000,000 org/ml
% Reduction ([1]; pH 2.49, 30 seconds contact): 72.142%
Survivors ([1]; pH 2.49, 30 seconds contact): 156,000,000 org/ml
% Reduction [2, 4]: 90.250% and 85.250%
Survivors [2, 4]: 11,700,000 org/ml and 17,700,000 org/ml
% Reduction ([2]; 2000 ppm, pH 1.5, 1 minute contact): 99.962% and 99.983%
% Reduction [2, 5]: >99.999%
Survivors [2, 5]: 10 org/ml and 20 org/ml
% Reduction [2, 6]: <79.167%
Survivors [2, 6]: >25,000,000 org/ml
% Reduction [2, 7]: <97.917%
Survivors [2, 7]: >25,000,000 org/ml
% Reduction ([2]; 2000 ppm, pH 1.75, 2 minutes contact): 98.192% and 98.817%
% Reduction [2, 8]: <79.167%
Survivors [2, 8]: >25,000,000 org/ml
% Reduction [2, 9]: <97.917%
Survivors [2, 9]: >25,000,000 org/ml
% Reduction [2, 10]: <97.917%
Survivors [2, 10]: >25,000,000 org/ml
% Reduction [2, 11]: <79.167%
Survivors [2, 11]: >25,000,000 org/ml
% Reduction [2, 12]: <97.917%
Survivors [2, 12]: >25,000,000 org/ml
% Reduction [2, 13]: <97.917%
Survivors [2, 13]: >25,000,000 org/ml
% Reduction [2, 14]: <79.167%
Survivors [2, 14]: >25,000,000 org/ml
% Reduction [2, 15]: <97.917%
Survivors [2, 15]: >25,000,000 org/ml
% Reduction [2, 16]: <97.917%
Survivors [2, 16]: >25,000,000 org/ml
% Reduction [2, 17]: 96.167% and 92.833%
Survivors [2, 17]: 4,600,000 org/ml and 8,600,000 org/ml
% Reduction ([2]; 4000 ppm, pH 1.5, 1 minute contact): 99.994% and 99.976%
% Reduction ([2]; 4000 ppm, pH 1.5, 2 minutes contact): >99.999% and 99.997%
% Reduction [2, 18]: 94.250% and 92.917%
Survivors [2, 18]: 6,900,000 org/ml and 8,500,000 org/ml
% Reduction ([2]; 4000 ppm, pH 1.75, 1 minute contact): 96.667% and 98.417%
% Reduction ([2]; 4000 ppm, pH 1.75, 2 minutes contact): 98.933% and 98.833%
% Reduction [2, 19]: 83.250% and 84.500%
Survivors [2, 19]: 20,100,000 org/ml and 18,600,000 org/ml
% Reduction ([2]; 4000 ppm, pH 2.0, 1 minute contact): 94.583% and 97.833%
% Reduction ([2]; 4000 ppm, pH 2.0, 2 minutes contact): 96.167% and 91.417%
% Reduction [2, 20]: <79.167%
Survivors [2, 20]: >25,000,000 org/ml
% Reduction [2, 21]: <79.167%
Survivors [2, 21]: >25,000,000 org/ml
% Reduction [2, 22]: <79.167%
Survivors [2, 22]: >25,000,000 org/ml
% Reduction [2, 23]: <79.167%
Survivors [2, 23]: >25,000,000 org/ml
% Reduction [2, 24]: <79.167%
Survivors [2, 24]: >25,000,000 org/ml
% Reduction [2, 25]: <79.167%
Survivors [2, 25]: >25,000,000 org/ml
antimicrobial activity (in words) ([2]; at less than pH 2.5 and, particularly less than 2.0): greatly enhanced
Average Organisms/Bird [3, 26]: 576,000 Organisms/Bird
Organisms/Bird [3, 26]: 584,000 Organisms/Bird and 536,000 Organisms/Bird and 660,000 Organisms/Bird and 520,000 Organisms/Bird and 580,000 Organisms/Bird
% Reduction ([3]; 2000 ppm SAS, 10 seconds dip, pre 5 bird dip pH 1.60, post pH 1.78, vs no-treatment control): 75.0%
Average Organisms/Bird [3, 27]: 246,400 Organisms/Bird
Organisms/Bird [3, 27]: 556,000 Organisms/Bird and 128,000 Organisms/Bird and 264,000 Organisms/Bird and 88,000 Organisms/Bird and 196,000 Organisms/Bird
% Reduction ([3]; 2000 ppm SAS, repeated test (Table 5), vs wash control): 88.7%
Average Organisms/Bird [3, 28]: 618,400 Organisms/Bird
Organisms/Bird [3, 28]: 396,000 Organisms/Bird and 528,000 Organisms/Bird and 392,000 Organisms/Bird and 476,000 Organisms/Bird and 1,300,000 Organisms/Bird
% Reduction ([3]; 4000 ppm SAS, 10 seconds dip, pre 5 bird dip pH 1.56, post pH 1.75, vs no-treatment control): 73.2%
performance in carcass dip (in words) ([3]; both 2000 ppm and 4000 ppm): perform well

CC(O)C(=O)O (stereo not drawn) [Lactic Acid, lactic acid, reference compound]
Average Organisms/Bird [3, 29]: 2,054,800 Organisms/Bird
Organisms/Bird [3, 29]: 600,000 Organisms/Bird and 1,074,000 Organisms/Bird and 2,120,000 Organisms/Bird and 3,240,000 Organisms/Bird (2×)
% Reduction ([3]; 2400 ppm Lactic Acid, 10 seconds dip, pre 5 bird dip pH 1.80, post pH 1.96, vs no-treatment control): 10.8%
Average Organisms/Bird [3, 30]: 1,430,000 Organisms/Bird
Organisms/Bird [3, 30]: 1,000,000 Organisms/Bird and 1,800,000 Organisms/Bird and 1,400,000 Organisms/Bird and 1,520,000 Organisms/Bird
% Reduction ([3]; 4800 ppm Lactic Acid, 10 seconds dip, pre 5 bird dip pH 1.80, post pH 1.96, vs no-treatment control): 37.9%
antimicrobial effect in carcass dip (in words) ([3]; lactic acid itself (2400 and 4800 ppm)): relatively little antimicrobial effect
